Data: patent US8680065B2, “Oligonucleotides of human endogenous retrovirus 9 (ERV-9) long terminal repeat (LTR) and methods of use” (The United States of America, as represented by the …, priority 2008, dated 2014)

Columns and labels:
MDA-231 cells [1] = experiment: Cancer cell proliferation, oligonucleotide in combination with VP16, 48 hours; assay type: cell-based, human; conditions: oligonucleotide 15 μg/ml with VP16 30 ng/ml and 50 ng/ml, P<0.05
[2] = test system: LNcaP cells (a prostate cancer cell line); experiment: Cancer cell proliferation, oligonucleotide in LIPOFECTAMINE, 48 hours, direct cell counting; assay type: cell-based, human; conditions: oligonucleotide 10, 20 or 30 μg/ml
tumor = conditions: U.S. Pat. Nos. 7,256,284 and 6,946,447; Ozawa et al. 2004; cited from earlier work
LNcaP cells = experiment: Cancer cell proliferation, oligonucleotide in combination with VP16, 48 hours; assay type: cell-based, human; conditions: oligonucleotide 15 μg/ml with VP16 30 ng/ml and 50 ng/ml
Method: FIG. 10 is a graph showing proliferation of LNcaP cells treated with ERV-9 U3 sense or antisense oligonucleotide (SEQ ID NOs: 1 and 2, respectively), in combination with VP16. Cells (4×10^4) were treated with oligonucleotide (15 μg/ml) alone or in combination with the concentrations of VP16 shown for 48 hours.
To test the effect of treating cancer cells with the combination of ERV-9 U3 oligonucleotide and VP16, six different cancer cell lines were analyzed: HT1080, (FIG. 7); MDA-231 (FIG. 8); K562 (FIG. 9); LNcaP (FIG. 10); HepG2 (FIG. 11); and MCF-7 (FIG. 12). Cells (4×10^4) were treated with 15 μg/ml ERV-9 U3 sense (SEQ ID NO: 1) or antisense (SEQ ID NO: 2) oligonucleotide alone or in combination with VP16 at a concentration of 30 ng/ml or 50 ng/ml. After 48 hours, cell proliferation was assessed by direct cell counting. Cell proliferation levels were expressed relative to GFP oligonucleotide control in the absence of VP16.

[3] = test system: MDA-231 cells (a breast cancer cell line); experiment: Cancer cell proliferation, oligonucleotide in LIPOFECTAMINE, 48 hours, direct cell counting; assay type: cell-based, human; conditions: oligonucleotide 10, 20 or 30 μg/ml, P<0.05
MDA-231 cells [4] = experiment: Cancer cell proliferation, U3 and U5 oligonucleotides, 72 hours; assay type: cell-based, human; conditions: 20 μg/ml
Method: FIG. 17 is a graph showing the effect of sense and antisense ERV-9 U3 and (SEQ ID NOs: 1, 2, 7, 8, 9, and 10) and U5 (SEQ ID NOs: 11 and 12) oligonucleotides on proliferation of MDA-231 cells. Cells (4×10^4) were treated with oligonucleotide formulated in LIPOFECTAMINE™ at a concentration of 20 μg/ml for 72 hours. GFP sense oligonucleotide and G3139, GRN163 and MDM2 antisense oligonucleotides were included as controls. Cell proliferation levels were expressed relative to cells transfected with GFP oligonucleotide. All U3 and U5 sense and antisense oligonucleotides inhibited cell proliferation better than GFP control and the G3139, GRN163 and MDM2 antisense oligonucleotides.
(§1) HT1080 or MDA-231 cells (4×10^4 cells) were treated with ERV-9 LTR (U3 or U5) sense or antisense oligonucleotides formulated in LIPOFECTAMINE™ at a concentration of 20 μg/ml for 72 hours. GFP sense oligonucleotide was used as a control to measure the non-specific cytotoxicity of phosphorothioates-based oligonucleotides. Relative cell proliferation levels were expressed as percentage of GFP oligonucleotide transfected control. The results are shown in FIG. 16 (HT1080 cells) and FIG. 17 (MDA-231 cells).

HT1080 cells = experiment: as above; assay type: cell-based, human; conditions: 20 μg/ml
Method: FIG. 16 is a graph showing the effect of sense and antisense ERV-9 U3 (SEQ ID NOs: 1, 2, 7, 8, 9, and 10) and U5 (SEQ ID NOs: 11 and 12) oligonucleotides on proliferation of HT1080 cells. Cells (4×10^4) were treated with oligonucleotide formulated in LIPOFECTAMINE™ at a concentration of 20 μg/ml for 72 hours. GFP sense oligonucleotide was used as a control to measure the non-specific cytotoxicity of phosphorothioate-based oligonucleotides. Antisense oligonucleotides G3139, GRN163, and MDM2 were also evaluated. Cell proliferation levels were expressed relative to cells transfected with GFP oligonucleotide. All U3 and U5 sense and antisense oligonucleotides inhibited cell proliferation to a greater extent that GFP control. In addition, with the exception of the U5 sense oligonucleotide, all U3 and U5 oligonucleotides inhibited cell proliferation better than the G3139, GRN163 and MDM2 antisense oligonucleotides.
as §1

MCF-7 cells = experiment: Tumor cell proliferation, siRNA in LIPOFECTAMINE, 72 hours; assay type: cell-based, human; conditions: siRNA 100 nM
Method: (§2) FIG. 20 is a pair of graphs showing the effect of ERV-9 LTR U3 region siRNA (SEQ ID NOs: 13 and 14), alone or in combination with VP16, on proliferation of MDA-231 (top) and MCF-7 (bottom) cells. 4×10^4 cells were treated with siRNAs formulated in LIPOFECTAMINE™ at 100 nM for 72 hours. RRM2 is a combination of three siRNAs (SEQ ID NOs: 15, 16, and 17) against ribonucleotide reductase subunit M2. Relative cell proliferation levels were expressed as percentage of non-treated control.
(§3) 4×10^4 cells were treated with siRNAs formulated in LIPOFECTAMINE™ at 100 nM for 72 hours. […] For RRM2, a combination of the 3 siRNAs was used at final concentration of 100 nM. Relative cell proliferation levels were expressed as percentage of non-treated control. Student's t-test was used for statistics.

MDA-231 cells [5] = experiment: as above; assay type: cell-based, human; conditions: siRNA 100 nM
Method: as §2, §3

Substance	cell proliferation relative to GFP oligonucleotide control (MDA-231 cells [1])	cell proliferation relative to GFP oligonucleotide [2]	tumor growth in animal models (tumor)	cell proliferation relative to GFP oligonucleotide control (LNcaP cells)	cell proliferation relative to GFP oligonucleotide [3]	cell proliferation relative to GFP oligonucleotide transfected control (MDA-231 cells [4])	cell proliferation relative to GFP oligonucleotide transfected control (HT1080 cells)	further results
MDM2 antisense oligonucleotide: antisense oligonucleotide specific for MDM2, TGACACCTGTTCTCACTCAC (listed as DNA, chemistry not given here)	inhibited cell proliferation only at a VP16 concentration of 50 ng/ml	inhibited cell proliferation only at a concentration of 10 μg/ml	has been previously shown to inhibit tumor growth in animal models	inhibited cell proliferation better than GFP control only at a VP16 concentration of 30 ng/ml	inhibited cell proliferation only at concentrations of 10 μg/ml and 20 μg/ml	inhibited cell proliferation better than the GFP control oligonucleotide	inhibited cell proliferation better than the GFP oligonucleotide control	
U3S4: ERV-9 U3 sense oligonucleotide CCGAGCCTCGCCGACGAGCGCCGC, target nt 3096-3119 (AF064190) (listed as DNA, chemistry not given here) [Oligo U3S4]							inhibited cell proliferation better than G3139, GRN163 and MDM2 oligonucleotides	
U5AS: ERV-9 U5 antisense oligonucleotide GTTCTGATGTTTGGATGTGTTC, target nt 819-840 (AF064191) (listed as DNA, chemistry not given here) [Oligo U5AS]							inhibited cell proliferation better than G3139, GRN163 and MDM2 oligonucleotides	
U3AS4: ERV-9 U3 antisense oligonucleotide GCGGCGCTCGTCGGCGAGGCACGG, target nt 3096-3119 (AF064190) (listed as DNA, chemistry not given here) [Oligo U3AS4]							inhibited cell proliferation better than G3139, GRN163 and MDM2 oligonucleotides	
U5S: ERV-9 U5 sense oligonucleotide GAACACATCCAAACATCAGAAC, target nt 819-840 (AF064191) (listed as DNA, chemistry not given here) [Oligo U5S]							inhibited cell proliferation better than the GFP oligonucleotide control	
G3139: antisense oligonucleotide specific for Bcl-2, TCTCCCAGCGTGCGCCAT (listed as DNA, chemistry not given here) [Oligo G3139]	inhibited cell proliferation only at a VP16 concentration of 50 ng/ml	did not significantly inhibit cell proliferation at any of the three concentration levels	has been previously shown to inhibit tumor growth in animal models	did not inhibit cell proliferation at any VP16 concentration tested	inhibited cell proliferation only at oligonucleotide concentrations of 20 μg/ml and 30 μg/ml	inhibited cell proliferation better than the GFP control oligonucleotide	inhibited cell proliferation better than the GFP oligonucleotide control	
ERV-9 LTR U3 siRNA: siRNA duplex of the ERV9 LTR U3 region: CUCAAGGUUUGUAAACACACCAAUCAG and CUGAUUGGUGUGUUUACAAACCUUGAG (listed as RNA, chemistry not given here)								cell proliferation as percentage of non-treated control (MCF-7 cells): inhibited cell proliferation better than RRM2 siRNAs; cell proliferation as percentage of non-treated control (MDA-231 cells [5]): inhibited cell proliferation better than RRM2 siRNAs
U3AS5: ERV-9 U3 antisense oligonucleotide CCGACCGGTTCCGGTCTCGGCCGAGG, target nt 2792-2817 (AF064190) (listed as DNA, chemistry not given here) [Oligo U3AS5]							inhibited cell proliferation better than G3139, GRN163 and MDM2 oligonucleotides	
GRN163: antisense oligonucleotide specific for telomerase, TAGGGTTAGACAA (listed as DNA, further chemistry not given here)	inhibited cell proliferation only at a VP16 concentration of 50 ng/ml	did not significantly inhibit cell proliferation at any of the three concentration levels	has been previously shown to inhibit tumor growth in animal models	did not inhibit cell proliferation at any VP16 concentration tested	inhibited cell proliferation only at concentrations of 10 μg/ml and 20 μg/ml	inhibited cell proliferation better than the GFP control oligonucleotide		
U3S5: ERV-9 U3 sense oligonucleotide GGCTGGCCAAGGCCAGAGCCGGCTCC, target nt 2792-2817 (AF064190) (listed as DNA, chemistry not given here) [Oligo U3S5]							inhibited cell proliferation better than G3139, GRN163 and MDM2 oligonucleotides	
